B1: Heterologously expressed subunit Nqo16 (ttha1528 gene), His-tagged (natural protein, T. thermophilus HB8, UniProt Q5SI52 1-131, looked up)
chain: MVRVGMRAAPRVSLEALKAALGGLKLSEAKVYLITDWQDKRDQARYALLLHTGKKDLLVPDAFGPAFPGGEEALSELVGLLLAQGARRFYEAVVSPGEMTALLDLPPEELLKRVMAIANPTDPGIYLKRAA
notes: reverse primer with the stop codon) and cloned into pet16b; Full length is read from the printed primers (start codon in the NdeI site to the stop codon); also called His-tagged Nqo16; source: E. coli BL21(DE3), purified (heat treatment 70 °C, Ni-NTA)
B2: Complex I subunit Nqo6 (Thermus thermophilus) (natural protein, T. thermophilus HB8, UniProt Q56218 1-181, looked up)
chain: MALKDLFERDVQELEREGILFTTLEKLVAWGRSNSLWPATFGLACCAIEMMASTDARNDLARFGSEVFRASPRQADVMIVAGRLSKKMAPVMRRVWEQMPDPKWVISMGACASSGGMFNNYAIVQNVDSVVPVDVYVPGCPPRPEALIYAVMQLQKKVRGQAYNERGERLPPVAAWKRTRG
notes: Nqo6, core subunit of the peripheral arm of respiratory complex I, Thermus thermophilus HB8; Endogenous subunit inside the crystallised intact complex; source: purified from T. thermophilus HB8 cells as part of intact complex I (anion exchange, cation exchange, gel filtration)
B3: Complex I subunit Nqo8 (Thermus thermophilus) (natural protein, T. thermophilus HB8, UniProt Q60019 1-365, looked up)
chain: MTWSYPVDPYWMVALKALLVVVGLLTAFAFMTLIERRLLARFQVRMGPNRVGPFGLLQPLADAIKSIFKEDIVVAQADRFLFVLAPLISVVFALLAFGLIPFGPPGSFFGYQPWVINLDLGILYLFAVSELAVYGIFLSGWASGSKYSLLGSLRSSASLISYELGLGLALLAPVLLVGSLNLNDIVNWQKEHGWLFLYAFPAFLVYLIASMAEAARTPFDLPEAEQELVGGYHTEYSSIKWALFQMAEYIHFITASALIPTLFLGGWTMPVLEVPYLWMFLKIAFFLFFFIWIRATWFRLRYDQLLRFGWGFLFPLALLWFLVTALVVALDLPRTYLLYLSALSFLVLLGAVLYTPKPARKGGGA
notes: Nqo8, core subunit of the membrane domain of respiratory complex I, Thermus thermophilus HB8; Endogenous subunit inside the crystallised intact complex; source: purified from T. thermophilus HB8 cells as part of intact complex I (anion exchange, cation exchange, gel filtration)
B4: Complex I subunit Nqo10 (Thermus thermophilus) (natural protein, T. thermophilus HB8, UniProt Q56225 1-176, looked up)
chain: MSLLEGLALFLLLLSGVLVVTLRNAIHAALALILNFLVLAGVYVALDARFLGFIQVIVYAGAIVVLFLFVIMLLFAAQGEIGFDPLVRSRPLAALLALGVAGILAAGLWGLDLAFTQDLKGGLPQALGPLLYGDWLFVLLAVGFLLMAATVVAVALVEPGKASRAKEAEKREEVAR
notes: Nqo10, core subunit of the membrane domain of respiratory complex I, Thermus thermophilus HB8; Endogenous subunit inside the crystallised intact complex; source: purified from T. thermophilus HB8 cells as part of intact complex I (anion exchange, cation exchange, gel filtration)

Key:
[1] = biological target: T1, T. thermophilus complex I (quinone site, Q-site) (Thermus thermophilus, UniProt Q56218+Q56220+Q60019); assay: NADH:DQ oxidoreductase activity, absorbance at […] nm; assay type: biochemical
T1 construct: gene nqo4; native intact complex purified from T. thermophilus HB8 membranes in TDM; 16 subunits, 550 kDa; for crystals recombinant His-tagged Nqo16 (E. coli) was added; activity preparation has sub-stoichiometric Nqo16; with NADH-quinone oxidoreductase subunit 1; NADH-quinone oxidoreductase subunit 2; NADH-quinone oxidoreductase subunit 3; NADH-quinone oxidoreductase subunit 5; NADH-quinone oxidoreductase subunit 7; NADH-quinone oxidoreductase subunit 9; NADH-quinone oxidoreductase subunit 10; NADH-quinone oxidoreductase subunit 11; NADH-quinone oxidoreductase subunit 12; NADH-quinone oxidoreductase subunit 13; NADH-quinone oxidoreductase subunit 14; NADH-quinone oxidoreductase subunit 15; NADH-quinone oxidoreductase subunit 16
T1 sequence (Q56222 whole entry partner, one chain of several): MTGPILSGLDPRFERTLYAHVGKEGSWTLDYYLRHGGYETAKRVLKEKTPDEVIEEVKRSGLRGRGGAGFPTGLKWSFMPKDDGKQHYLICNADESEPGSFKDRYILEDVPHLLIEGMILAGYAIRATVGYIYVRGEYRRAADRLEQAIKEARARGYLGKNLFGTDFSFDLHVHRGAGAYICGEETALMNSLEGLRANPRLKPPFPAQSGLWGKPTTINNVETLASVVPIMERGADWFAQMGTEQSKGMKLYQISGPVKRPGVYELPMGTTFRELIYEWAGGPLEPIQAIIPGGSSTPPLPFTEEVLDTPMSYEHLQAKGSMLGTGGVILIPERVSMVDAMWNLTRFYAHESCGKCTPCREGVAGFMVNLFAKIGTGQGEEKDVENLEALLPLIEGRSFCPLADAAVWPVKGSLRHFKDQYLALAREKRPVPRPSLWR

[2] = biological target: T1, T. thermophilus complex I (quinone site, Q-site); assay: biochemical; parameters: NADH:decylubiquinone oxidoreductase activity of purified complex I, NADH absorbance at 340 nm, 50 °C
Method: Complex I activity was measured at 50 °C with DQ as an electron acceptor. To a 2 mL quartz cuvette containing DQ assay buffer (50 mM Bis–Tris pH 6.0, 25 mM NaCl, 2 mM CaCl2), 0.25 mg mL^−1 asolectin (Fluka), 8 μg mL^−1 complex I protein, and 100 μM DQ were added. The sample was incubated for 5 min whilst stirred at 400 rpm, to allow for the equilibration of the protein/DQ/lipid/detergent mixture. The reaction was started by adding 100 μM NADH and the change in absorbance was followed at 340 nm, over 30 s under constant stirring. Specific enzyme activity was calculated in μmol NADH oxidized mg^−[…]. When required, inhibitors of complex I were added after DQ, prior to the 5-min incubation period. Lipids were prepared by mixing asolectin in a small volume of chloroform (1 mL) before evaporating the solvent under a stream of nitrogen gas, and were resuspended in 1% CHAPS to a final concentration of 5 mg mL^−1 before use. […] IC50’s for a range of common complex I inhibitors are listed in the Supplementary Table 3. […] Crystal structures of complex I with bound DQ and Q-like inhibitors also show a rotation of PA, like that observed in MJ–MN transition. However, its degree of torsion depends strongly on the Q-ligand, with DQ introducing the largest conformational change (Supplementary Fig. 7d, e). All Q-like ligands studied here display a similar pattern of interactions at the deepest end of the Q-cavity, with the headgroup about 12 Å away from cluster N2 (Fig. 4). A shared feature between all ligands bound in the Q-site is a hydrogen bond interaction of a ketone group from the quinone ring with the conserved and essential for complex I activity Y87_4[16],[36]. Other key residues, such as H38_4 from the key β1–β2 loop (33-QHPSTHG-39) in Nqo4 and M51_6, also contribute to the stabilization of the quinone ring, while secondary residues are involved specifically in the binding of each ligand (Fig. 4 and Supplementary Fig. 2). […] In the case of [compound left out], H38_4 stabilizes its outer ether group, while M51_6 interacts with the oxygen in the furanose ring (Fig. 4c). The distal nitrobenzene moiety is surrounded by both charged and nonpolar residues that, despite the lack of direct interaction, might form a suitable pocket for its accommodation.

[3] = biological target: T2, Intact complex I (NADH:ubiquinone oxidoreductase) purified from Thermus thermophilus, the form without Nqo16 (T. thermophilus HB8, UniProt Q56222 1-438; Q56221 1-181; Q56223 1-783; Q56220 1-409; Q56219 1-207; Q56218 …); assay: crystal structure; intact complex I purified from T. thermophilus mixed with purified recombinant Nqo16 (1:0.2 CXI:Nqo16), sitting drop at 23 °C, 100 mM Bis-Tris pH 6.0, 19-25% PEG 4000, 100 mM KCl, 100 mM glutaric acid, detergents; native crystals and crystals soaked or co-crystallised with NADH, decylubiquinone, piericidin A, aureothin or pyridaben; conditions: both partners purified
T2 construct: Nqo1, complex I subunit, Thermus thermophilus HB8; Nqo2, complex I subunit, Thermus thermophilus HB8; Nqo3, complex I subunit, Thermus thermophilus HB8; Nqo4, complex I subunit, Thermus thermophilus HB8; Nqo5, complex I subunit, Thermus thermophilus HB8; Nqo6, complex I subunit, Thermus thermophilus HB8; Nqo7, complex I subunit, Thermus thermophilus HB8; Nqo8, complex I subunit, Thermus …

[4] = biological target: B3; assay: as above; conditions: both partners purified
[5] = biological target: T3, Complex I subunit Nqo4 (Thermus thermophilus) (T. thermophilus HB8, UniProt Q56220 1-409); assay: as above; conditions: both partners purified
T3 construct: Nqo4, core subunit of the peripheral arm of respiratory complex I, Thermus thermophilus HB8; Endogenous subunit inside the crystallised intact complex; source: purified from T. thermophilus HB8 cells as part of intact complex I (anion exchange, cation exchange, gel filtration)
T3 sequence (looked up): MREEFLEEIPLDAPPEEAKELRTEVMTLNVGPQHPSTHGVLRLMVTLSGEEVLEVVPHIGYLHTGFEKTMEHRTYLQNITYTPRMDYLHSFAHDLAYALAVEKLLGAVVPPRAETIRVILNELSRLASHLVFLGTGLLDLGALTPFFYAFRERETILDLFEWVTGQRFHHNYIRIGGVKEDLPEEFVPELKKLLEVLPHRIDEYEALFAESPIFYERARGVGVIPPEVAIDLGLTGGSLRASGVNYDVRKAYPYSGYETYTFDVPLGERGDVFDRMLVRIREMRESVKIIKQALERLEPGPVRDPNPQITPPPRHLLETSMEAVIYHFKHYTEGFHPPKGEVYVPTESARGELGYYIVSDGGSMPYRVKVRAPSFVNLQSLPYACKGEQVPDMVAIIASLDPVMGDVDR

COc1oc([C@H]2C/C(=C/C(C)=C/c3ccc([N+](=O)[O-])cc3)CO2)c(C)c(=O)c1C [AUT, aureothin] was tested, and the IC50 ([1]; read-out: IC50) was 10.3 nM.

COc1cc(CNC(=O)CCCC/C=C/C(C)C)ccc1O [Capsaicin] gave an IC50 ([2]; read-out: IC50 (µM in cell)) of 197 µM.

For Cc1nn(C)c(Oc2ccccc2)c1/C=N/OCc1ccc(C(=O)OC(C)(C)C)cc1 [Fenpyroximate], the IC50 ([2]; read-out: IC50 (nM in cell)) was 0.63 µM.

With C/C=C(\C)[C@H](O)[C@H](C)/C=C(C)/C=C/C/C(C)=C/Cc1nc(OC)c(OC)c(O)c1C [PIE, piericidin A] the IC50 [1] was 31 nM.

Molecule CC(C)(C)c1ccc(CSc2cnn(C(C)(C)C)c(=O)c2Cl)cc1 [PYR, pyridaben] has an IC50 ([1]; read-out: IC50) of 15.6 nM.

With CCCCCCCCCC[C@H](O)[C@H]1CC[C@@H]([C@@H]2CC[C@H]([C@H](O)CCCCCCCCCC[C@@H](O)CC3=C[C@H](C)OC3=O)O2)O1 [Rolliniastatin-1] the IC50 ([2]; read-out: IC50 (nM in cell)) was 0.93 µM.

C/C=C(C)/C=C/C=C/[C@H](OC)[C@@H](C)[C@@H](OC)[C@@H](C)CCc1oc2c(O)c(OC)cc(OC)c2c(=O)c1C [Stigmatellin] showed an IC50 ([2]; read-out: IC50 (µM in cell)) of 60 µM.

Work on C=C(C)[C@H]1Cc2c(ccc3c2O[C@@H]2COc4cc(OC)c(OC)cc4[C@@H]2C3=O)O1 [rotenone] yielded an IC50 ([1]; read-out: IC50) of 190 nM.

B1: binds [3].

B2: binds [4].

B3: binds [5].

B4: binds [4].
